Measurements as given in US20040110802A1, “Antibacterial benzoic acid derivatives” (priority 2002, published 2004).
Converted amounts (≈) assume the structure as drawn.

Tested on: SAUR 9218
Experiment: MIC Test Method, standard agar dilution
Format: cell-based
Details: agar dilution, Mueller Hinton agar, incubated overnight at 35° C.; lowest concentration that inhibits visible growth; read-out: SAUR 9218 MIC
Experimental: The in vitro MiCs of test compounds were determined by a standard agar dilution method. A stock drug solution of each analog was prepared in the preferred solvent, usually DMSO:H2O (1:3). Serial 2-fold dilutions of each sample are made using 1.0 ml aliquots of sterile distil]ed water. To each 1.0 ml aliquot of drug was added 9 ml of molten Mueller Hinton agar medium. The drug-supplemented agar was mixed, poured into 15×100 mm petri dishes, and allowed to solidify and dry prior to inoculation.
Vials of each of the test organisms are maintained frozen in the vapor phase of a liquid nitrogen freezer. Test cultures are grown overnight at 35° C. on the medium appropriate for the organism. Colonies are harvested with a sterile swab, and cell suspensions are prepared in Trypticase Soy broth (TSB) to equal the turbidity of a 0.5 McFamland standard. A 1:20 dilution of each suspension was made in TSB. The plates containing the drug supplemented agar are inoculated with a 0.001 ml drop of the cell suspension using a Steers replicator, yielding approximately 10^4 to 10^5 cells per spot. The plates are incubated overnight at 35° C.
Following incubation the Minimum Inhibitory Concentration (MIC μg/ml), the lowest concentration of drug that inhibits visible growth of the organism, was read and recorded.

MIC [µg/mL] | Compound
64 (≈ 111 µM) | O=C(Nc1ccc(Br)cc1C(=O)O)c1csc(S(=O)(=O)NC2CCN(Cc3ccccc3)CC2)c1
0.125 (≈ 0.34 µM) | N#Cc1ccc(NC(=O)c2cc(-c3ccccc3Cl)on2)c(C(=O)O)c1
16 (≈ 39.5 µM) | O=C(Nc1ccc(Br)cc1C(=O)O)c1ccc(Br)s1
2 (≈ 4.64 µM) | O=C(Nc1ccc(Br)cc1C(=O)O)c1ncc(-c2ccc3c(c2)OCO3)o1
2 (≈ 4.65 µM) | N#Cc1ccc(NC(=O)c2cc3cccc(NC(=O)C4CCCCC4)c3[nH]2)c(C(=O)O)c1
128 (≈ 293 µM) | Cn1nc(-c2c(F)cccc2F)cc1C(=O)Nc1ccc(Br)cc1C(=O)O
0.25 (≈ 0.52 µM) | N#Cc1ccc(NC(=O)c2cc3cccc(NC(=O)CCCCc4ccccc4)c3[nH]2)c(C(=O)O)c1
8 (≈ 17.8 µM) | CCCCN(CC)S(=O)(=O)c1cc(C(=O)Nc2ccc(C#N)cc2C(=O)O)sc1C
0.25 (≈ 0.506 µM) | N#Cc1ccc(NC(=O)c2cc3cccc(NC(=O)Cc4csc5ccccc45)c3[nH]2)c(C(=O)O)c1
4 (≈ 8.86 µM) | Cn1c(C(=O)Nc2ccc(C#N)cc2C(=O)O)cc2cccc(NC(=O)NCC(O)CO)c21 (stereo not shown)
> 128 | COc1ccc(-c2cnc(C(=O)Nc3ccc(C#N)cc3C(=O)O)cn2)c(OC)c1OC
1 (≈ 2 µM) | N#Cc1ccc(NC(=O)c2cc3cccc(NC(=O)c4ccccc4-c4ccccc4)c3[nH]2)c(C(=O)O)c1
8 (≈ 15.3 µM) | O=C(Nc1ccc(Br)cc1C(=O)O)c1csc(S(=O)(=O)NC2Cc3ccccc3C2)c1
0.25 (≈ 0.581 µM) | N#Cc1ccc(NC(=O)c2cc3cccc(NC(=O)c4cccs4)c3[nH]2)c(C(=O)O)c1
> 128 | Cc1sc(C(=O)Nc2ccc(C#N)cc2C(=O)O)cc1S(=O)(=O)N1CCN(Cc2ccccc2)CC1
16 (≈ 28.9 µM) | Cc1c(S(=O)(=O)Nc2ccc3c(c2)OCCO3)csc1C(=O)Nc1ccc(Br)cc1C(=O)O
0.125 (≈ 0.337 µM) | CC(C)CCSc1cnc(C(=O)Nc2ccc(C#N)cc2C(=O)O)cn1

MIC [µg/mL] | Compound
0.125 (≈ 0.28 µM) | CCCCCCCC(=O)Nc1cccc2cc(C(=O)Nc3ccc(C#N)cc3C(=O)O)[nH]c12
16 (≈ 35.6 µM) | Cc1sc(C(=O)Nc2ccc(C#N)cc2C(=O)O)cc1S(=O)(=O)N1CCC(O)CC1
0.5 (≈ 1.01 µM) | CC(C)(C)c1ccc(CC(=O)Nc2cccc3cc(C(=O)Nc4ccc(C#N)cc4C(=O)O)[nH]c23)cc1
64 (≈ 148 µM) | O=C(Nc1ccc(Br)cc1C(=O)O)c1ccc(-c2ccc([N+](=O)[O-])cc2)o1
8 (≈ 17.4 µM) | O=C(O)c1cc(Br)ccc1NC(=O)c1cc(SCc2ccccc2)cc[n+]1[O-]
0.125 (≈ 0.307 µM) | COCC(C)Oc1cccc2cc(C(=O)Nc3ccc(C#N)cc3C(=O)O)n(C)c12 (stereo not shown)
64 (≈ 186 µM) | N#Cc1ccc(NC(=O)c2cnc(-c3ccccc3)cn2)c(C(=O)O)c1
0.5 | CCSc1ccc(C(=O)Nc2ccc(C#N)cc2C(=O)O)cn1.Cl
0.125 (≈ 0.262 µM) | N#Cc1ccc(NC(=O)c2noc3ccc(NS(=O)(=O)Cc4ccccc4)cc23)c(C(=O)O)c1
0.25 (≈ 0.493 µM) | N#Cc1ccc(NC(=O)c2cc3cccc(NC(=O)Cc4c(Cl)cccc4Cl)c3[nH]2)c(C(=O)O)c1
16 (≈ 32.9 µM) | O=C(Nc1ccc(Br)cc1C(=O)O)c1ccc2c(c1)S(=O)(=O)c1ccccc1C2=O
2 (≈ 5 µM) | CS(=O)(=O)Nc1ccc2c(C(=O)Nc3ccc(C#N)cc3C(=O)O)noc2c1
0.125 (≈ 0.318 µM) | CCCCCCSc1ccc(C(=O)Nc2ccc(Cl)cc2C(=O)O)cn1
2 (≈ 6.19 µM) | N#Cc1ccc(NC(=O)c2ncc(-c3ccco3)o2)c(C(=O)O)c1
2 (≈ 5.89 µM) | N#Cc1ccc(NC(=O)c2cc3ccc(Cl)cc3[nH]2)c(C(=O)O)c1
4 (≈ 11 µM) | N#Cc1ccc(NC(=O)c2cnc(-c3ccccc3F)cn2)c(C(=O)O)c1
> 128 | N#Cc1ccc(NC(=O)c2cncc(-c3ccc(Cl)cc3)c2)c(C(=O)O)c1

The remaining lines, values behind:

Compound | MIC [µg/mL]
CCCCCSc1ccc(C(=O)Nc2ccc(Br)cc2C(=O)O)nn1 | 0.03 (≈ 0.0707 µM)
Cn1c(C(=O)Nc2ccc(C#N)cc2C(=O)O)cc2c(Br)ccc(NC(=O)Cc3ccccc3)c21 | 2 (≈ 3.76 µM)
N#Cc1ccc(NC(=O)c2cc(-c3ccccc3NS(=O)(=O)c3ccc(OC(F)(F)F)cc3)on2)c(C(=O)O)c1 | 8 (≈ 14 µM)
Cn1c(C(=O)Nc2ccc(C#N)cc2C(=O)O)cc2cccc(-c3ccccc3F)c21 | 0.25 (≈ 0.605 µM)
N#Cc1ccc(NC(=O)c2cc3ccccc3[nH]2)c(C(=O)O)c1 | 2 (≈ 6.55 µM)
CCCn1c(C(=O)Nc2ccc(Br)cc2C(=O)O)cc2ccccc21 | 4 (≈ 9.97 µM)
N#Cc1ccc(NC(=O)c2ccc(SC3CCCCC3)nc2)c(C(=O)O)c1 | 0.5 (≈ 1.31 µM)
N#Cc1ccc(NC(=O)c2cc(SCc3ccccc3)on2)c(C(=O)O)c1 | 0.125 (≈ 0.329 µM)
N#Cc1cccc(C(=O)Nc2cccc3cc(C(=O)Nc4ccc(C#N)cc4C(=O)O)[nH]c23)c1 | 1 (≈ 2.23 µM)
Cc1noc(C)c1-c1cncc(C(=O)Nc2ccc(C#N)cc2C(=O)O)c1 | 16 (≈ 44.2 µM)
Cc1sc(C(=O)Nc2ccc(C#N)cc2C(=O)O)cc1S(=O)(=O)N(CCO)Cc1ccccc1 | 16 (≈ 32 µM)
COc1ccc(CC(=O)Nc2cccc3cc(C(=O)Nc4ccc(C#N)cc4C(=O)O)[nH]c23)cc1OC | 1 (≈ 2.01 µM)
N#Cc1cccc(-c2cnc(C(=O)Nc3ccc(C#N)cc3C(=O)O)o2)c1 | 2 (≈ 5.58 µM)
Cc1sc(C(=O)Nc2ccc(Br)cc2C(=O)O)cc1S(=O)(=O)N1CC2CC1CN2Cc1ccccc1 (stereo not shown) | 16 (≈ 27.1 µM)
O=C(O)c1cc(Br)ccc1NC(=O)c1nc(N2CCOCC2)ncc1Cl | > 128
Cn1nc(C(=O)Nc2ccc(Br)cc2C(=O)O)cc1-c1ccccc1 | 32 (≈ 80 µM)
O=C(Nc1ccc(Br)cc1C(=O)O)c1csc(S(=O)(=O)N2CCc3ccccc32)c1 | 2 (≈ 3.94 µM)
O=C(Nc1ccc(Br)cc1C(=O)O)c1ncc(-c2ccc(F)cc2)o1 | 2 (≈ 4.94 µM)
Cl.Cn1c(C(=O)Nc2ccc(C#N)cc2C(=O)O)cc2cccc(OCC(O)Cn3ccnc3)c21 (stereo not shown) | 0.5

Compound | MIC [µg/mL]
O=C(Nc1ccc(Br)cc1C(=O)O)c1cc(-c2ccccc2)on1 | 0.25 (≈ 0.646 µM)
N#Cc1ccc(NC(=O)c2cc3cccc(NC(=O)C4CCC4)c3[nH]2)c(C(=O)O)c1 | 0.5 (≈ 1.24 µM)
Cc1noc(C)c1S(=O)(=O)Nc1cccc2cc(C(=O)Nc3ccc(C#N)cc3C(=O)O)n(C)c12 | 0.25 (≈ 0.507 µM)
N#Cc1ccc(NC(=O)c2ccc(SCc3ncon3)nc2)c(C(=O)O)c1 | 1 (≈ 2.62 µM)
O=C(Nc1ccc(Br)cc1-c1noc(=O)[nH]1)c1cc(-c2ccccc2)on1 | 1 (≈ 2.34 µM)
O=C(Nc1ccc(O)cc1C(=O)O)c1cc(-c2ccccc2Br)on1 | 0.125 (≈ 0.31 µM)
CCCCS(=O)(=O)N(c1ccc2cc(C(=O)Nc3ccc(C#N)cc3C(=O)O)n(C)c2c1)S(=O)(=O)CCCC | 2 (≈ 3.48 µM)
N#Cc1ccc(NC(=O)C2=NS(=O)(=O)c3ccccc32)c(C(=O)O)c1 | > 128
N#Cc1ccc(NC(=O)c2noc3cc(-c4ccccc4)ccc23)c(C(=O)O)c1 | 0.125 (≈ 0.326 µM)
CC(=O)Nc1cccc(-c2cccc3cc(C(=O)Nc4ccc(C#N)cc4C(=O)O)n(C)c23)c1 | 0.5 (≈ 1.11 µM)
COCCOCCOCC(=O)Nc1cccc2cc(C(=O)Nc3ccc(C#N)cc3C(=O)O)[nH]c12 | 4 (≈ 8.33 µM)
CC(C)OCC(O)COc1cccc2cc(C(=O)Nc3ccc(C#N)cc3C(=O)O)n(C)c12 (stereo not shown) | 0.25 (≈ 0.554 µM)
COc1ccc(CCCC(=O)Nc2cccc3cc(C(=O)Nc4ccc(C#N)cc4C(=O)O)[nH]c23)cc1 | 1 (≈ 2.01 µM)
Cc1sc(C(=O)Nc2ccc(C#N)cc2C(=O)O)cc1S(=O)(=O)N(C)CCC#N | 128 (≈ 296 µM)
CCC(C)Sc1ccc(C(=O)Nc2ccc(C#N)cc2C(=O)O)cn1 (stereo not shown) | 0.5 (≈ 1.41 µM)
O=C(Nc1ccc(Br)cc1C(=O)O)c1cc2ccccc2o1 | 8 (≈ 22.2 µM)
N#Cc1ccc(NC(=O)c2noc3ccc(-c4ccccc4F)cc23)c(C(=O)O)c1 | 0.125 (≈ 0.311 µM)
N#Cc1ccc(NC(=O)c2cc(-c3ccc(C(F)(F)F)cc3)on2)c(C(=O)O)c1 | 1 (≈ 2.49 µM)
N#Cc1ccc(NC(=O)c2ccccn2)c(C(=O)O)c1 | 32 (≈ 120 µM)

Compound | MIC [µg/mL]
Cn1c(C(=O)Nc2ccc(C#N)cc2C(=O)O)cc2ccc(Br)c(N)c21 | 0.5 (≈ 1.21 µM)
Cc1noc(C)c1-c1ccc2c(C(=O)Nc3ccc(C#N)cc3C(=O)O)noc2c1 | 0.125 (≈ 0.311 µM)
COCOCC(CCc1cc(C(=O)Nc2ccc(Br)cc2C(=O)O)no1)OCOC (stereo not shown) | 8 (≈ 16.4 µM)
Cc1cc(CC(=O)Nc2cccc3cc(C(=O)Nc4ccc(C#N)cc4C(=O)O)[nH]c23)on1 | 2 (≈ 4.51 µM)
CCC(C)Oc1ccc2cc(C(=O)Nc3ccc(C#N)cc3C(=O)O)n(C)c2c1 (stereo not shown) | 16 (≈ 40.9 µM)
Cn1c(C(=O)Nc2ccc(C#N)cc2C(=O)O)cc2ccc(NS(=O)(=O)c3cccs3)cc21 | 0.5 (≈ 1.04 µM)
CC1(C)OCC(CCc2cc(C(=O)Nc3ccc(Br)cc3C(=O)O)no2)O1 (stereo not shown) | 4 (≈ 9.11 µM)
N#Cc1ccc(NC(=O)c2cc3ccc(OCc4ccccc4)cc3[nH]2)c(C(=O)O)c1 | 0.125 (≈ 0.304 µM)
N#Cc1ccc(NC(=O)c2noc3cc(Br)ccc23)c(C(=O)O)c1 | 0.5 (≈ 1.29 µM)
N#Cc1ccc(NC(=O)c2cc3cccc(NC(=O)Cc4ccccc4C(F)(F)F)c3[nH]2)c(C(=O)O)c1 | 1 (≈ 1.97 µM)
Cc1sc(C(=O)Nc2ccc(C#N)cc2C(=O)O)cc1S(=O)(=O)N1CCC(C#N)(c2ccccc2)CC1 | 8 (≈ 15 µM)
Cc1sc(C(=O)Nc2ccc(C#N)cc2C(=O)O)cc1S(=O)(=O)N1CCCC1C (stereo not shown) | 8 (≈ 18.5 µM)
N#Cc1ccc(NC(=O)c2ccoc2)c(C(=O)O)c1 | > 128
O=C(Nc1ccc(Br)cc1C(=O)O)c1coc(CC[C@H](O)CO)n1 | > 128
Cc1ccccc1CC(=O)Nc1cccc2cc(C(=O)Nc3ccc(C#N)cc3C(=O)O)[nH]c12 | 0.25 (≈ 0.553 µM)
N#Cc1ccc(-c2cnc(C(=O)Nc3ccc(C#N)cc3C(=O)O)o2)cc1 | > 128
COCCOc1cccc2cc(C(=O)Nc3ccc(C#N)cc3C(=O)O)n(C)c12 | 0.25 (≈ 0.635 µM)
O=C(Nc1ccc(Br)cc1C(=O)O)c1cc(CCCC2CCCCC2)on1 | 4 (≈ 9.19 µM)

Same assay, conditions: read-out: SAUR 9218 MIC

Compound | MIC [µg/mL]
Cn1c(C(=O)Nc2ccc(C#N)cc2C(=O)O)cc2cccc(NC(=O)CF)c21 | 1 (≈ 2.54 µM)
